Experimental findings from US20140113898A1, “BISARYLSULFONE AND DIALKYLARYLSULFONE COMPOUNDS AS CALCIUM CHANNEL BLOCKERS” (Zalicus Pharmaceuticals Ltd., priority 2010, published 2014) are described below.

The target of this test is T1, CaV2.2 (Homo sapiens, UniProt Q00975).
T1 construct: expressed in transfected cells; host or cells: unnamed doxycycline-inducible cell line
T1 sequence (Q00975 whole entry): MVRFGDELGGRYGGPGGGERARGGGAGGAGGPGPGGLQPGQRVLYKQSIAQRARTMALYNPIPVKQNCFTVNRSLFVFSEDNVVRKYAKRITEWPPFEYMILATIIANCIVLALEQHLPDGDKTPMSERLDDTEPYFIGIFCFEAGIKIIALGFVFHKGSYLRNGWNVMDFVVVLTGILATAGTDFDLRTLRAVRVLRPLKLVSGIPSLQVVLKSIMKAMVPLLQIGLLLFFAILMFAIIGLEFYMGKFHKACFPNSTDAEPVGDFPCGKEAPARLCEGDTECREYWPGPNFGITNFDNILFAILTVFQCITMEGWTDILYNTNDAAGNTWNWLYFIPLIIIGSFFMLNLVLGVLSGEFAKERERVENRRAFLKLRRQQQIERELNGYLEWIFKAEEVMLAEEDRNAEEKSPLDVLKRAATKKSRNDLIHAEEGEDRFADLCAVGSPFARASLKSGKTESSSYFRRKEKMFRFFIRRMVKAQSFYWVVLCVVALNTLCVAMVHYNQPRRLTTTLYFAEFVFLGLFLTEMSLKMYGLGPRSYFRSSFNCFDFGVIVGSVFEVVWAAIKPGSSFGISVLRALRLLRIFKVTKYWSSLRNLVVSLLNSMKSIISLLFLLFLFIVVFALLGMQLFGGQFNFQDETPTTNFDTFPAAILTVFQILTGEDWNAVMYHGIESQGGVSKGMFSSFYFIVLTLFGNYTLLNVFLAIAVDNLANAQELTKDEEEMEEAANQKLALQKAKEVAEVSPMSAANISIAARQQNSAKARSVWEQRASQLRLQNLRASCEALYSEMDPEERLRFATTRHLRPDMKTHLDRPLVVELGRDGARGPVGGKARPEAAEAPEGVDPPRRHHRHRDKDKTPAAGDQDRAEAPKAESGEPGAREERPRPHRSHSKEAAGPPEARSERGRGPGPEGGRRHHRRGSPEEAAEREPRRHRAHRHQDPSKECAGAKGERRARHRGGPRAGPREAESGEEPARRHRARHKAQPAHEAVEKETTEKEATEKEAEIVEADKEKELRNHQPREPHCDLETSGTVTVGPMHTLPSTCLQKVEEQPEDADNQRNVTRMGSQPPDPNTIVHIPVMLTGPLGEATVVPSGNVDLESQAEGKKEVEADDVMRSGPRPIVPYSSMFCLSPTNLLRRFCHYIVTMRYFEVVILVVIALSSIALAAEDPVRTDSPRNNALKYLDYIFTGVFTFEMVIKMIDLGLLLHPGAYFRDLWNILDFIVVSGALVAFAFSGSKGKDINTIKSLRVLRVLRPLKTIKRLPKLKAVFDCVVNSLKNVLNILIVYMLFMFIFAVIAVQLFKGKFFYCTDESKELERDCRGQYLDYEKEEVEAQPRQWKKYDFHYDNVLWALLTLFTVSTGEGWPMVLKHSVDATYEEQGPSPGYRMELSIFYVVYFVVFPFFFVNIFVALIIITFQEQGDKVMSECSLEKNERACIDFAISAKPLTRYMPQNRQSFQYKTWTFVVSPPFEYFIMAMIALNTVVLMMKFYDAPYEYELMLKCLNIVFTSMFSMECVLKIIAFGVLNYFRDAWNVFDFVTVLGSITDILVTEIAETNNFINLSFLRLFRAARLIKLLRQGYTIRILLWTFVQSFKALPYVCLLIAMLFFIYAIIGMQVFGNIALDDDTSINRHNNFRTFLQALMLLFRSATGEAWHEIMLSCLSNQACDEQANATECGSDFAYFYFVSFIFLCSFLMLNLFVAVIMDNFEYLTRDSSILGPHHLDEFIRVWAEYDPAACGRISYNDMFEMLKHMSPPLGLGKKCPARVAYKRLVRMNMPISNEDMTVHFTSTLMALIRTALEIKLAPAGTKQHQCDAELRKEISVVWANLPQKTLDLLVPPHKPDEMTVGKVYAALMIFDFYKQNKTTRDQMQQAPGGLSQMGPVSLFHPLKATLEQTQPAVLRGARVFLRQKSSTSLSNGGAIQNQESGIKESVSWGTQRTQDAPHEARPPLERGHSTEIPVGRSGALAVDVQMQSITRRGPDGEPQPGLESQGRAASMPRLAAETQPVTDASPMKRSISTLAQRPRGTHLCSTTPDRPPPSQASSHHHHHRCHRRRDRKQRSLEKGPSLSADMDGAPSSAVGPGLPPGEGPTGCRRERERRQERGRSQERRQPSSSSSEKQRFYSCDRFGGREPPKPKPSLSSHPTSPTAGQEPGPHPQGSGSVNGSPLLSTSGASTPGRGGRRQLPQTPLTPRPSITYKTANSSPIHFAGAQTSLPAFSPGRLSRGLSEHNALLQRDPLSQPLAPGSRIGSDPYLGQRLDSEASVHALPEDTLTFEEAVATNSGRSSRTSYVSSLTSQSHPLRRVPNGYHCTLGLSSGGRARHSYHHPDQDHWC
T1 sequence (P54284 whole entry partner): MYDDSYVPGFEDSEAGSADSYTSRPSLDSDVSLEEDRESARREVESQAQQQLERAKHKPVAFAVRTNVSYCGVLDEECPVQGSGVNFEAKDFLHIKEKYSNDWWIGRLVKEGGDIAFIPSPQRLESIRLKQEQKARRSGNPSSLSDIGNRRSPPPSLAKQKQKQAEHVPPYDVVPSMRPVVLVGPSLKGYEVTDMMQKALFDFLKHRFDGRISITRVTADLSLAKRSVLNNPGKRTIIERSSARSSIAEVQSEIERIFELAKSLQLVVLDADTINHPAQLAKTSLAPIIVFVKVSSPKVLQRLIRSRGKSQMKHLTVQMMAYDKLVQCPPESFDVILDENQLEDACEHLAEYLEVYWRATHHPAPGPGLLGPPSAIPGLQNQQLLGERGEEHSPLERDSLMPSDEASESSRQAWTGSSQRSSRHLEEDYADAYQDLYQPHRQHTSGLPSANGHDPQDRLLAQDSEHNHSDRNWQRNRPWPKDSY
T1 sequence (P54289 25-946 partner limits assumed): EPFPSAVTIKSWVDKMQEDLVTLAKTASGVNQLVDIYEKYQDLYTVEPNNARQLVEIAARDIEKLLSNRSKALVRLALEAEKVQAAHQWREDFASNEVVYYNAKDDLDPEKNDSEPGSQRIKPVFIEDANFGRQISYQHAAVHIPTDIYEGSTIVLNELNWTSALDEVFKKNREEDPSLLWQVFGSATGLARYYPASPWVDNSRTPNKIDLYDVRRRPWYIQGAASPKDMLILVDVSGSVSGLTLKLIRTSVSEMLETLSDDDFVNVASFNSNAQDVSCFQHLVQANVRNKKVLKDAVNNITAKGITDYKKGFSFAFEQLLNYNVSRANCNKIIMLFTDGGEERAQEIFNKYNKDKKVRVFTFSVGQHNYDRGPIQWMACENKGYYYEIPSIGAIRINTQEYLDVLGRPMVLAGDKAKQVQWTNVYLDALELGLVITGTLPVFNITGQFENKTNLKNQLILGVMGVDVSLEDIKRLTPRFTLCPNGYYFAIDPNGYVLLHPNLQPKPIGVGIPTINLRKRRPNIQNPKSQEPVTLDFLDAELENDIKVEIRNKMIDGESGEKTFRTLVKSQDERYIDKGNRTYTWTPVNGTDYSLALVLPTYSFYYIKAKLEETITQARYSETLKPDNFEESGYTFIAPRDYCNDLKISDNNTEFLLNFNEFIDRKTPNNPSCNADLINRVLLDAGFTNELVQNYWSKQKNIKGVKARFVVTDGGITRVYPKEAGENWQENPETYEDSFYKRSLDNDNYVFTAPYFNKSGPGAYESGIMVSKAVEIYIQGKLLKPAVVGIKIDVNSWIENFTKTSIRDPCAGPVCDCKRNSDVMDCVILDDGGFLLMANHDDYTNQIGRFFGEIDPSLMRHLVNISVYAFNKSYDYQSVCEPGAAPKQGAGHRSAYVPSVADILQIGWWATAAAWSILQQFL
T1 sequence (P54289 947-1103 partner limits assumed): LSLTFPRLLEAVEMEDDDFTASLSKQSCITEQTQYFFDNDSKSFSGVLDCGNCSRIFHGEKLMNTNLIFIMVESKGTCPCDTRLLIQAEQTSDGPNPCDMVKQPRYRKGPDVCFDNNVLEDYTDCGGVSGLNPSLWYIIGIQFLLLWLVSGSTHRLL
Put plainly: High-throughput CaV2.2/Kir2.3 FLIPR fluorescent assay. It is filed as cell-based. The note with it: Table 5; Fluo-4 FLIPR; closed or inactivated state not stated; read-out: FLIPR data CaV2.2. The essentials:
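Doxycycline-induced cells moved to 29 °C on assay day and were loaded with 4.4 μM Fluo-4. They were held in 2 mM KCl (closed state) or 12.5 mM KCl (inactivated state) buffer, pH 7.4, then depolarized with 130 mM KCl. Fluorescence was read 3 min on FLIPR, and IC50 was obtained from logistic fits.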
As for `CC(C)(CCNC(=O)C1(N)CCCCC1)S(=O)(=O)c1cccc(C(F)(F)F)c1` [Compound 207, 1-amino-N-(3-methyl-3-((3-(trifluoromethyl)phenyl)sulfonyl)butyl)cyclohexanecarboxamide], the IC50 is 1.39 µM.

In the case of `CC(C)(CCNC(=O)[C@H]1CCCC[C@@H]1N)S(=O)(=O)c1cccc(C(F)(F)F)c1` [Compound 208, (1S,2S)-2-amino-N-(3-methyl-3-((3-(trifluoromethyl)phenyl)sulfonyl)butyl)cyclohexanecarboxamide], the IC50 worked out at 1.75 µM.

Take `CC(C)(CCNC(=O)[C@H]1CCCC[C@H]1N)S(=O)(=O)c1cccc(C(F)(F)F)c1` [Compound 209, (1S,2R)-2-amino-N-(3-methyl-3-((3-(trifluoromethyl)phenyl)sulfonyl)butyl)cyclohexanecarboxamide]: the IC50 came out at 1.68 µM.

As to `Cc1c(C(=O)NCCC(C)(C)S(=O)(=O)c2cccc(C(F)(F)F)c2)sc2nc[nH]c(=O)c12` [Compound 210, 5-methyl-N-(3-methyl-3-((3-(trifluoromethyl)phenyl)sulfonyl)butyl)-4-oxo-3,4-dihydrothieno[2,3-d]pyrimidine-6-carboxamide], the IC50 came out at 3.32 µM.

Take `CC(C)S(=O)(=O)c1cccnc1C(=O)NCCC(C)(C)S(=O)(=O)c1cccc(C(F)(F)F)c1` [Compound 211, 3-(isopropylsulfonyl)-N-(3-methyl-3-((3-(trifluoromethyl)phenyl)sulfonyl)butyl)picolinamide]: the IC50 is 1.1 µM.

`CC(C)(CCNC(=O)c1ccc(C(F)(F)F)cc1S(C)(=O)=O)S(=O)(=O)c1cc(F)cc(C(F)(F)F)c1` [Compound 213, N-(3-((3-fluoro-5-(trifluoromethyl)phenyl)sulfonyl)-3-methylbutyl)-2-(methylsulfonyl)-4-(trifluoromethyl)benzamide]: the IC50 turned out to be 1.12 µM.

For `CC(C)(CCNC(=O)c1cn2cc(C(F)(F)F)ccc2n1)S(=O)(=O)c1cc(F)cc(C(F)(F)F)c1` [Compound 214, N-(3-((3-fluoro-5-(trifluoromethyl)phenyl)sulfonyl)-3-methylbutyl)-6-(trifluoromethyl)imidazo[1,2-a]pyridine-2-carboxamide], the IC50 was found to be 1.31 µM.

In the case of `Cc1c(C(=O)NCCC(C)(C)S(=O)(=O)c2cccc(C(F)(F)F)c2)ncn(C(C)C)c1=O` [Compound 215, 1-isopropyl-5-methyl-N-(3-methyl-3-((3-(trifluoromethyl)phenyl)sulfonyl)butyl)-6-oxo-1,6-dihydropyrimidine-4-carboxamide], the IC50 came out at 3.16 µM.

For the molecule `CC(C)(CCNC(=O)[C@@H]1C[C@@H](F)CN1)S(=O)(=O)c1cccc(C(F)(F)F)c1` [Compound 216, (2S,4R)-4-fluoro-N-(3-methyl-3-((3-(trifluoromethyl)phenyl)sulfonyl)butyl)pyrrolidine-2-carboxamide], the IC50 was determined as 8.93 µM.

`CC(C)(CCNC(=O)[C@@H]1C[C@@H](O)CN1)S(=O)(=O)c1cccc(C(F)(F)F)c1` [Compound 217, (2S,4R)-4-hydroxy-N-(3-methyl-3-((3-(trifluoromethyl)phenyl)sulfonyl)butyl)pyrrolidine-2-carboxamide]: the IC50 is 8.17 µM.

As for `CC(C)(CCNC(=O)[C@@H]1CCCN1)S(=O)(=O)c1cccc(C(F)(F)F)c1` [Compound 219, (S)-N-(3-methyl-3-((3-(trifluoromethyl)phenyl)sulfonyl)butyl)pyrrolidine-2-carboxamide], the IC50 was 3.23 µM.

In the case of `CC(C)(CCNC(=O)[C@H]1CCCN1)S(=O)(=O)c1cccc(C(F)(F)F)c1` [Compound 220, (R)-N-(3-methyl-3-((3-(trifluoromethyl)phenyl)sulfonyl)butyl)pyrrolidine-2-carboxamide], the IC50 turned out to be 3.43 µM.

Take `CN1CCCCC1C(=O)NCCC(C)(C)S(=O)(=O)c1cccc(C(F)(F)F)c1` (stereo not shown) [Compound 221, 1-methyl-N-(3-methyl-3-((3-(trifluoromethyl)phenyl)sulfonyl)butyl)piperidine-2-carboxamide]: the IC50 came out at 6.1 µM.
